Patent US20120202288A1, “COMPOSITIONS COMPRISING CYCLIC AMP ENHANCERS AND/OR EP LIGANDS, AND METHODS OF PREPARING AND USING THE SAME” (FATE THERAPEUTICS, INC., priority 2009, published 2012)
Like-named read-outs stand apart in the source and are kept apart here.

Key:
[1] = Stability of 16,16-dimethyl PGE2 formulation, storage at −80° C.; format: physicochemical; details: for Assay (% LC): 10 mM in DMSO, 2 ml glass vial; for Purity (%): stability
Description: (§1) 16,16-dimethyl PGE2 and its related substances were separated on a Phenomenex, Synergi Hydro RP 4μ HPLC column with gradient elution conditions and detected at 205 nm. The assay of 16,16-dimethyl PGE2 was determined by comparing the 16,16-dimethyl PGE2 peak area of the test samples with that of a reference standard of known concentration and purity. The levels of the impurities and degradation products were determined from the peak area ratio of each individual impurity to the total peak area of the 16,16-dimethyl PGE2 and all impurities and degradation products. The identify of 16,16-dimethyl PGE2 was confirmed by comparing the retention time of the main peak of the test sample against that in the reference standard.
(§2) Stability tests were performed on formulations of 16,16-dimethyl PGE2 stored at either −80° C. or −20° C. for up to six months. These clinical formulations were composed of 10 mM 16,16-dimethyl PGE2 in […] DMSO, and were stored in a 2 ml Type I clear glass vial with a 13 mm West 4432/50 Teflon coated stopper. The results are shown in Tables 3 (−80° C.) and 4 (−20° C.) below.

[2] = Stability of 16,16-dimethyl PGE2 formulation, storage at −20° C.; format: physicochemical; details: for Assay (% LC): 10 mM in DMSO, 2 ml glass vial; for Purity (%): stability
Description: as §1, §2

[3] = tested on: hematopoietic stem cells (HSCs); assay: Ex vivo treatment of HSCs prior to transplant, engraftment of donor HSCs; format: in vivo; details: bone marrow cells incubated with 10 μM at 4° C. for one hour, then transplanted into allogeneic subject
Description: Bone marrow cells containing HSCs are obtained directly by removal from the hip of a donor subject using a needle and syringe. The heterogeneous mixture of bone marrow cells is transferred to two separate tissue culture flasks, and a suitable growth medium is provided.
262 μl of a 10 mM solution of 16,16-dimethyl PGE2 in DMSO is added to the cells in the first tissue culture flask, to a final working concentration of 10 μM of 16,16-dimethyl PGE2. The same amount of DMSO without agent is added to the second flask as a control, and the cells in both flasks are incubated at 4° C. (e.g., in an ice bath) for one hour. The 16,16-dimethyl PGE2 is at least 90% pure as measured by HPLC, and is produced by good manufacturing practice (GMP).
After incubation of the HSCs in the ice bath, the cells from each flask are administered to separate, but otherwise genetically identical subjects. These subjects are both allogeneic to the donor cells. The subjects are then observed for engraftment of the donor HSCs, using markers that are specific for the donor cells.

[4] = cited from earlier work
[5] = tested on: human umbilical cord-derived CD34+ cells; details: apoptosis induced by nitric oxide (NO) or serum deprivation; cited from earlier work
[6] = tested on: transplanted stem cells; details: injection shortly after marrow cell graft; cited from earlier work
[7] = tested on: hepatic stellate cells; details: cited from earlier work
[8] = tested on: dendritic cell (DC); details: ex vivo or in vitro; withdrawal of growth factors or ceramide; cited from earlier work
[9] = tested on: murine embryonic stem cell; details: cited from earlier work

CCCCC(C)(C)[C@H](O)/C=C/[C@H]1[C@H](O)CC(=O)[C@@H]1C/C=C\CCCC(=O)O [16,16-dimethyl PGE2]
Assay (% LC) ([1]; 1 Month): 98.5 % LC
Assay (% LC) ([1]; 2 Months): 97.7 % LC
Assay (% LC) ([1]; 3 Months): 98.5 % LC
Assay (% LC) ([1]; 6 Months): 98.6 % LC
Assay (% LC) ([1]; Time Zero): 98.1 % LC
Product Appearance ([1]; 1 Month): conforms
Total Related Substances (%) ([1]; 1 Month): 5.33%
pH ([1]; 1 Month): 4.8
Product Appearance ([1]; 2 Months): conforms
Total Related Substances (%) ([1]; 2 Months): 5.51%
pH ([1]; 2 Months): 4.7
Product Appearance ([1]; 3 Months): conforms
Total Related Substances (%) ([1]; 3 Months): 5.35%
pH ([1]; 3 Months): 4.8
Product Appearance ([1]; 6 Months): conforms
Total Related Substances (%) ([1]; 6 Months): 5.51%
pH ([1]; 6 Months): 4.7
Product Appearance ([1]; Time Zero): conforms
Total Related Substances (%) ([1]; Time Zero): 5.52%
pH ([1]; Time Zero): 4.5
Purity (%) ([1]; 1 Month): 94.7%
Purity (%) ([1]; 2 Months): 94.5%
Purity (%) ([1]; 3 Months): 94.7%
Purity (%) ([1]; 6 Months): 94.5%
Purity (%) ([1]; Time Zero): 94.5%
Assay (% LC) ([2]; 1 Month): 98.7 % LC
Assay (% LC) ([2]; 2 Months): 97.4 % LC
Assay (% LC) ([2]; 3 Months): 98.8 % LC
Assay (% LC) ([2]; 6 Months): 97.5 % LC
Assay (% LC) ([2]; Time Zero): 98.1 % LC
Product Appearance ([2]; 1 Month): conforms
Total Related Substances (%) ([2]; 1 Month): 5.22%
pH ([2]; 1 Month): 4.8
Product Appearance ([2]; 2 Months): conforms
Total Related Substances (%) ([2]; 2 Months): 5.52%
pH ([2]; 2 Months): 4.7
Product Appearance ([2]; 3 Months): conforms
Total Related Substances (%) ([2]; 3 Months): 5.54%
pH ([2]; 3 Months): 4.6
Product Appearance ([2]; 6 Months): conforms
Total Related Substances (%) ([2]; 6 Months): 5.95%
pH ([2]; 6 Months): 4.6
Product Appearance ([2]; Time Zero): conforms
Total Related Substances (%) ([2]; Time Zero): 5.52%
pH ([2]; Time Zero): 4.5
Purity (%) ([2]; 1 Month): 94.8%
Purity (%) ([2]; 2 Months): 94.5%
Purity (%) ([2]; 3 Months): 94.5%
Purity (%) ([2]; 6 Months): 94.0%
Purity (%) ([2]; Time Zero): 94.5%
number of engrafted HSC donor cells versus control-treated cells [3]: significantly greater number of engrafted HSC donor cells

CCCC[C@H](C)C[C@H](O)/C=C/[C@H]1[C@H](O)CC(=O)[C@@H]1CC(=O)C1CCC(C(=O)O)CC1 (stereo partly drawn) [ONO-DI-004]
effect on core temperature (Tc) ([4]; in vivo): increase the core temperature (Tc) in a dose-dependent manner

O[C@@H]1[C@@H]2OP(O)(=S)OC[C@H]2O[C@H]1n1cnc2cc(Cl)c(Cl)cc21 (stereo partly drawn) [BIMPS, sp-5,6-DCl-BIMPS]
survival of CD34+ cells [5]: promote survival

CC(C)NCC(O)c1ccc(O)c(O)c1 (stereo not drawn) [isoproterenol]
entry of transplanted stem cells into S phase [6]: triggers the transplanted stem cells into entering S phase

CCCCC[C@H](O)/C=C/[C@H]1[C@H](O)CC(=O)[C@@H]1C/C=C\CCCC(=O)O [PGE2, Prostaglandin E2]
mitogenesis of hepatic stellate cells [7]: inhibits the mitogenesis
protection of DC against apoptosis [8]: protects DC
amplification of multipotent progenitors [9]: cause amplification of multipotent progenitors

CCCCC[C@@H](/C=C/[C@H]1[C@H](OC)CC(=O)[C@@H]1C/C=C\CCCC(=O)O)OC [ONO-AE-248]
effect on core temperature (Tc) ([4]; 20 nmol): increased the Tc

CCCC(=O)Nc1ncnc2c1ncn2[C@@H]1O[C@@H]2COP(=O)(O)O[C@H]2[C@H]1OC(=O)CCC [dibutyryl-cAMP, dibutyryl cyclic adenosine 3′,5′-monophosphate]
survival of CD34+ cells [5]: promote survival
entry of transplanted stem cells into S phase [6]: triggers the transplanted stem cells into entering S phase
